Measurements published in patent US20120009280A1, “METHOD OF REDUCING THE RATE OF DEGRADATION OF A BIOLOGICAL MATERIAL” (Bio-Energy Ingredients Limited, priority 2009, published 2012).

How the values were obtained:
[1] = tested on: yeast; experiment: Yeast count of spent brewer's / wet distiller's grains stored at ambient temperature; format: cell-based
Protocol: (§1) Samples of Portion 1 (“AR”), Portion 3 (“SO”) and Portion 5 (“SH”) were then delivered to a microbiological testing facility about 15 kilometres from the treatment laboratory. Each was tested for initial total microbial, yeast and mould counts, respectively.
(§2) Separate untreated samples were similarly stored under insect-proof screens at ambient temperature for seven days (as shown in Tables 1 and 2). During the trial period the ambient temperature ranged from 11 to 33 degrees C.
(§3) The free moisture content on the initial spent brewer's grains was determined to be 78.1% m/m. After exposure to the environment for seven days, all of the samples were tested at a South African National Accreditation System (SANAS) approved microbiological testing facility. Each was tested for total micro-organism, yeast and mould counts to determine the affect of the various treatments. A similar procedure to that described in K. A. Rosentrater et al, Food Bioprocess Technol (2008) was used for the microbiological evaluation.
(§4) At the laboratory, the samples were thoroughly mixed and initially split into a first portion (Portion 1) and a second portion (Portion 2). Portion 1 was left untreated. A sample of Portion 1, was delivered immediately to a microbiological testing facility about 15 kilometres away from the treatment laboratory and was tested for initial total microbial, yeast and mould counts, respectively. No water removal prior to treatment was done in this experiment as was the case in Example 8 wherein a similar wet material was partially dewatered by pressing and the residue treated with 10% (w/w/) calcium oxide.
(§5) Samples from Portion 2 were subjected to treatment with varying amounts of a powdered, commercially-available calcium oxide containing approximately 94% calcium oxide (CaO) as shown in Table 32. The treatments varied from 2.5 to 10% (w/w) calcium oxide addition. The samples were stored in batches (according to the calcium oxide treatment) under insect-proof screens at ambient temperature for fifty six days. Separate untreated samples were similarly stored under insect-proof screens at ambient temperature for a total of 56 days. During the trial period the ambient temperature ranged from 10 to 30 degrees C. As this period was the southern hemisphere spring/early summer, the humidity as well as ambient temperatures varied widely.
as §3, with “79.4%” for “78.1%”
(§6) Samples from each treatment were drawn every seven days. No further calcium oxide treatment or agitation took place after the initial mix. In each case the entire sample was isolated and delivered to the microbiological testing facility.
(§7) The calcium oxide treatment trial described in Example 9 wherein wet distiller's grains were treated with 2.5%, 5% and 10.0% calcium oxide, respectively, versus untreated material was repeated using lower doses of calcium oxide. In this trial the same source of wet distiller's grains (again with now partial water removal prior to treatment) was treated. Also, the same protocol as described in Example 9 was applied, but at lower doses of calcium oxide i.e. 0.5%, 1.0%, 1.5%, 2.0% and 2.5%, respectively, versus untreated material.
(§8) In this trial the same source of wet distiller's grains (again with now partial water removal prior to treatment) was treated. Also, the same protocol as described in Example 9 was applied.

[2] = tested on: mould; experiment: Mould count of spent brewer's / wet distiller's grains stored at ambient temperature; format: cell-based
Protocol: as §1, §2, §3, §4
as §5, with “The treatments varied from 2.5 to 10% (w/w) calcium oxide addition.” left out
as §3, with “79.4%” for “78.1%”
as §6, §7, §8

[3] = tested on: yeast; experiment: Yeast count of spent brewer's / wet distiller's grains stored at ambient temperature; format: cell-based; remark: listed apart in the source
[4] = pH of suspensions of grain samples in distilled water or PBS; settings: 1% (w/w) in distilled water
Protocol: The untreated sample (A) was compared visually against the corresponding quicklime-treated sample (B).
On Day 7, 10 g amounts of each sample were suspended in either 90 ml PBS or 90 ml sterile distilled water and shaken for 10 minutes. The pH of each suspension was then measured and compared.
On Day 9, 10 g of each sample was suspended in 90 ml PBS and shaken for 10 minutes. The pH was measured.

[5] = 10% Ca-DGO (w/w) granules, week 1
[6] = 10% Ca-DGO (w/w) granules, week 2
[7] = 10% Ca-DGO (w/w) granules, week 3
[8] = 10% Ca-DGO (w/w) granules, week 4
[9] = 10% Ca-DGO (w/w) granules, week 5
[10] = 10% Ca-DGO (w/w) powder, week 1
[11] = 10% Ca-DGO (w/w) powder, week 2
[12] = 10% Ca-DGO (w/w) powder, week 3
[13] = 10% Ca-DGO (w/w) powder, week 4
[14] = 10% Ca-DGO (w/w) powder, week 5
[15] = 20% Ca-DGO (w/w) powder, week 1
[16] = 20% Ca-DGO (w/w) powder, week 2
[17] = 20% Ca-DGO (w/w) powder, week 3
[18] = 20% Ca-DGO (w/w) powder, week 4
[19] = 20% Ca-DGO (w/w) powder, week 5
[20] = 40% Ca-DGO (w/w) powder, week 1
[21] = 40% Ca-DGO (w/w) powder, week 2
[22] = 40% Ca-DGO (w/w) powder, week 3
[23] = 40% Ca-DGO (w/w) powder, week 4
[24] = 40% Ca-DGO (w/w) powder, week 5

[Ca+2].[OH-].[OH-] [(CaOH)2 powder]
Yeast Count ([1]; dose 3.3% (w/w), week 8): <10 cfu/gram
Yeast Count ([1]; dose 6.6% (w/w), week 2): <10 cfu/gram
Mould Count ([2]; dose 3.3% (w/w), week 0): <10 cfu/gram
Mould Count ([2]; dose 3.3% (w/w), week 1): <10 cfu/gram
Mould Count ([2]; dose 3.3% (w/w), week 2): <10 cfu/gram
Mould Count ([2]; dose 3.3% (w/w), week 3): <10 cfu/gram
Mould Count ([2]; dose 3.3% (w/w), week 4): <10 cfu/gram
Mould Count ([2]; dose 3.3% (w/w), week 5): <10 cfu/gram
Mould Count ([2]; dose 3.3% (w/w), week 6): <10 cfu/gram
Mould Count ([2]; dose 3.3% (w/w), week 7): <10 cfu/gram
Mould Count ([2]; dose 3.3% (w/w), week 8): <10 cfu/gram
Mould Count ([2]; dose 6.6% (w/w), week 0): <10 cfu/gram
Mould Count ([2]; dose 6.6% (w/w), week 1): <10 cfu/gram
Mould Count ([2]; dose 6.6% (w/w), week 2): <10 cfu/gram
Mould Count ([2]; dose 6.6% (w/w), week 3): <10 cfu/gram
Mould Count ([2]; dose 6.6% (w/w), week 4): <10 cfu/gram
Mould Count ([2]; dose 6.6% (w/w), week 5): <10 cfu/gram
Mould Count ([2]; dose 6.6% (w/w), week 6): <10 cfu/gram
Mould Count ([2]; dose 6.6% (w/w), week 7): <10 cfu/gram
Mould Count ([2]; dose 6.6% (w/w), week 8): <10 cfu/gram
Mould Count ([2]; dose 6.6% (w/w), week 9): 10 cfu/gram
Yeast Count ([3]; dose 3.3% (w/w), week 0): <10 cfu/gram
Yeast Count ([3]; dose 3.3% (w/w), week 1): <10 cfu/gram
Yeast Count ([3]; dose 3.3% (w/w), week 2): <10 cfu/gram
Yeast Count ([3]; dose 3.3% (w/w), week 3): <10 cfu/gram
Yeast Count ([3]; dose 3.3% (w/w), week 4): <10 cfu/gram
Yeast Count ([3]; dose 3.3% (w/w), week 5): <10 cfu/gram
Yeast Count ([3]; dose 3.3% (w/w), week 6): <10 cfu/gram
Yeast Count ([3]; dose 3.3% (w/w), week 7): <10 cfu/gram
Yeast Count ([3]; dose 6.6% (w/w), week 0): <10 cfu/gram
Yeast Count ([3]; dose 6.6% (w/w), week 1): <10 cfu/gram
Yeast Count ([3]; dose 6.6% (w/w), week 3): <10 cfu/gram
Yeast Count ([3]; dose 6.6% (w/w), week 4): <10 cfu/gram
Yeast Count ([3]; dose 6.6% (w/w), week 5): <10 cfu/gram
Yeast Count ([3]; dose 6.6% (w/w), week 6): <10 cfu/gram
Yeast Count ([3]; dose 6.6% (w/w), week 7): <10 cfu/gram
Yeast Count ([3]; dose 6.6% (w/w), week 8): <10 cfu/gram
Yeast Count ([3]; dose 6.6% (w/w), week 9): <10 cfu/gram
pH ([4]; dose 3.3% (w/w), week 0): 11.78
pH ([4]; dose 3.3% (w/w), week 1): 11.57
pH ([4]; dose 3.3% (w/w), week 2): 8.69
pH ([4]; dose 3.3% (w/w), week 3): 9.08
pH ([4]; dose 3.3% (w/w), week 4): 8.45
pH ([4]; dose 3.3% (w/w), week 5): 7.66
pH ([4]; dose 3.3% (w/w), week 6): 9.32
pH ([4]; dose 3.3% (w/w), week 7): 7.25
pH ([4]; dose 3.3% (w/w), week 8): 9.29
pH ([4]; dose 6.6% (w/w), week 0): 12.90
pH ([4]; dose 6.6% (w/w), week 1): 12.30
pH ([4]; dose 6.6% (w/w), week 2): 11.08
pH ([4]; dose 6.6% (w/w), week 3): 11.78
pH ([4]; dose 6.6% (w/w), week 4): 9.51
pH ([4]; dose 6.6% (w/w), week 5): 7.68
pH ([4]; dose 6.6% (w/w), week 6): 10.61
pH ([4]; dose 6.6% (w/w), week 7): 7.25
pH ([4]; dose 6.6% (w/w), week 8): 9.13
pH ([4]; dose 6.6% (w/w), week 9): 8.84

[Ca+2].[O-]CC(O)CO.[O-]CC(O)CO [calcium diglyceroxide]
Mould Count [2, 5]: 10 cfu/gram
Mould Count [2, 6]: <10 cfu/gram
Mould Count [2, 7]: <10 cfu/gram
Mould Count [2, 8]: <10 cfu/gram
Mould Count [2, 9]: <10 cfu/gram
Mould Count [2, 10]: <10 cfu/gram
Mould Count [2, 11]: <10 cfu/gram
Mould Count [2, 12]: <10 cfu/gram
Mould Count [2, 13]: 310 cfu/gram
Mould Count [2, 14]: 1020 cfu/gram
Mould Count [2, 15]: 10 cfu/gram
Mould Count [2, 16]: 10 cfu/gram
Mould Count [2, 17]: 10 cfu/gram
Mould Count [2, 18]: 10 cfu/gram
Mould Count [2, 19]: 10 cfu/gram
Mould Count [2, 20]: 10 cfu/gram
Mould Count [2, 21]: 10 cfu/gram
Mould Count [2, 22]: 10 cfu/gram
Mould Count [2, 23]: 10 cfu/gram
Mould Count [2, 24]: 10 cfu/gram
Yeast Count [3, 5]: 480 cfu/gram
Yeast Count [3, 6]: <10 cfu/gram
Yeast Count [3, 7]: <10 cfu/gram
Yeast Count [3, 8]: <19 cfu/gram
Yeast Count [3, 9]: <10 cfu/gram
Yeast Count [3, 10]: <10 cfu/gram
Yeast Count [3, 11]: <10 cfu/gram
Yeast Count [3, 12]: <10 cfu/gram
Yeast Count [3, 13]: <10 cfu/gram
Yeast Count [3, 14]: <10 cfu/gram
Yeast Count [3, 15]: 10 cfu/gram
Yeast Count [3, 16]: 10 cfu/gram
Yeast Count [3, 17]: 10 cfu/gram
Yeast Count [3, 18]: 10 cfu/gram
Yeast Count [3, 19]: 10 cfu/gram
Yeast Count [3, 20]: 10 cfu/gram
Yeast Count [3, 21]: 10 cfu/gram
Yeast Count [3, 22]: 20 cfu/gram
Yeast Count [3, 23]: 10 cfu/gram
Yeast Count [3, 24]: 10 cfu/gram
pH [4, 5]: 7.88
pH [4, 6]: 7.71
pH [4, 7]: 7.44
pH [4, 8]: 7.14
pH [4, 9]: 8.37
pH [4, 10]: 9.43
pH [4, 11]: 7.32
pH [4, 12]: 7.31
pH [4, 13]: 8.01
pH [4, 14]: 7.23
pH [4, 15]: 11.47
pH [4, 16]: 11.16
pH [4, 17]: 12.00
pH [4, 18]: 11.23
pH [4, 19]: 10.83
pH [4, 20]: 11.66
pH [4, 21]: 11.50
pH [4, 22]: 12.30
pH [4, 23]: 11.52
pH [4, 24]: 11.13
